# Results reported in US5783703A, “Sulfur-containing compounds method for their use and prodction” (Lederle (Japan), Ltd., priority 1993, dated 1998).
# How the values were obtained:
# Assay in all cases: Antibacterial activity, agar plate dilution method (MIC), Experimental Example 2
# Format in all cases: cell-based
# [1] = test system: P. mirabilis IFO 3849; conditions: Proteus mirabilis, IFO3849, MH agar, 37° C., 18 hours
# Method: (§1) There was measured, by the following method, the antibacterial activity of the compound (16) which had been produced in Example 14 with use of the compound (I) of the present invention as a synthesis intermediate.
# (§2) There was employed the agar plate dilution method in accordance with the standard method of the Japanese Chemotherapy Society [Chemotherapy, vol. 29, 76-79 (1981)]. Concretely, a Mueller-Hinton (MH) agar liquid medium containing the test microorganism was cultured overnight at 37° C., and the resultant culture medium was diluted with a buffered saline gelatin (BSG) solution so that the concentration of the test microorganism might be about […]. Then, with use of a microplanter, this diluted solution was inoculated each about 5 μl on MH agar media containing the test compounds. Thus, the minimum concentration of the test compound in which no growth of the test microorganism was observed after the incubation at 37° C. for 18 hours was regarded as Minimum Inhibitory Concentration (MIC). Incidentally, all of the test organisms used here were standard strains.
# [2] = test system: S. paratyphi 1015; conditions: Salmonella enterica, 18 h
# Method: as §1, §2
# [3] = test system: K. pneumoniae PCI-602; conditions: Klebsiella pneumoniae, PCI602, MH agar, 37° C., 18 hours
# Method: as §1, §2
# [4] = test system: S. typhi 901; conditions: Salmonella enterica, 18 h
# Method: as §1, §2
# [5] = test system: E. aerogenes ATCC 13048; conditions: Klebsiella aerogenes, ATCC13048, MH agar, 37° C., 18 hours
# Method: as §1, §2
# [6] = test system: P. rettgeri IFO 3850; conditions: Providencia rettgeri, IFO3850, MH agar, 37° C., 18 hours
# Method: as §1, §2
# [7] = test system: S. aureus MS353; conditions: Staphylococcus aureus, MH agar, 37° C., 18 hours
# Method: as §1, §2
# [8] = test system: P. vulgaris HX-19; conditions: Proteus vulgaris, HX19, MH agar, 37° C., 18 hours
# Method: as §1, §2
# [9] = test system: S. schottmuelleri 8006; conditions: MH agar, 37° C., 18 hours
# Method: as §1, §2
# [10] = test system: S. aureus FDA209P JC-1; conditions: Staphylococcus aureus, MH agar, 37° C., 18 hours
# Method: as §1, §2
# [11] = test system: E. cloacae 963; conditions: Enterobacter cloacae, MH agar, 37° C., 18 hours
# Method: as §1, §2
# [12] = test system: S. marcescens IAM 1184; conditions: Serratia marcescens, IAM1184, MH agar, 37° C., 18 hours
# Method: as §1, §2
# [13] = test system: S. typhimurium 11D971; conditions: Salmonella enterica, MH agar, 37° C., 18 hours
# Method: as §1, §2
# [14] = test system: S. aureus Terajima; conditions: Staphylococcus aureus, MH agar, 37° C., 18 hours
# Method: as §1, §2
# [15] = test system: M. morganii IFO 3848; conditions: Morganella morganii, IFO3848, MH agar, 37° C., 18 hours
# Method: as §1, §2
# [16] = test system: S. enteritidis G14; conditions: Salmonella enterica, MH agar, 37° C., 18 hours
# Method: as §1, §2
# [17] = test system: M. luteus ATCC 9341; conditions: Micrococcus luteus, ATCC9341, MH agar, 37° C., 18 hours
# Method: as §1, §2
# [18] = test system: E. coli NIHJ JC-2; conditions: Escherichia coli, NIHJJC2, MH agar, 37° C., 18 hours
# Method: as §1, §2
# [19] = test system: E. coli K-12 C600; conditions: Escherichia coli, K12C600, MH agar, 37° C., 18 hours
# Method: as §1, §2
# [20] = test system: S. pyogenes Cook; conditions: Streptococcus pyogenes, MH agar, 37° C., 18 hours
# Method: as §1, §2
# [21] = test system: P. vulgaris OX-19; conditions: Proteus vulgaris, OX19, MH agar, 37° C., 18 hours
# Method: as §1, §2
# [22] = test system: B. subtilis ATCC 6633; conditions: Bacillus subtilis, ATCC6633, MH agar, 37° C., 18 hours
# Method: as §1, §2
compound,measurement,setting,value
"C[C@@H](O)[C@H]1C(=O)N2C(C(=O)O)=C(SC3CN(C4=NCCS4)C3)[C@H](C)[C@H]12 [compound (16), (1R, 5S, 6S)-2-[1-(1,3-thiazolin-2-yl)azetidin-3-yl]thio-6-[(R)-1-hydroxyethyl]-1-methylcarbapen-2-em-3-carboxylate]",MIC,[1],0.39 µg/mL
same,MIC,[2],0.05 µg/mL
same,MIC,[3],0.013 µg/mL
same,MIC,[4],≤ 0.006 µg/mL
same,MIC,[5],0.1 µg/mL
same,MIC,[6],0.39 µg/mL
same,MIC,[7],≤ 0.006 µg/mL
same,MIC,[8],0.1 µg/mL
same,MIC,[9],0.025 µg/mL
same,MIC,[10],0.013 µg/mL
same,MIC,[11],0.05 µg/mL
same,MIC,[12],0.05 µg/mL
same,MIC,[13],0.025 µg/mL
same,MIC,[14],≤ 0.006 µg/mL
same,MIC,[15],0.39 µg/mL
same,MIC,[16],0.39 µg/mL
same,MIC,[17],0.2 µg/mL
same,MIC,[18],0.013 µg/mL
same,MIC,[19],0.1 µg/mL
same,MIC,[20],≤ 0.006 µg/mL
same,MIC,[21],0.1 µg/mL
same,MIC,[22],0.025 µg/mL
